One assay has as its target FGFR3 (Homo sapiens (Human), UniProt P22607). Put plainly: FGFR biochemical assay (LanthaScreen TR-FRET kinase assay), FGFR3. Background: TR-FRET usually uses a lanthanide donor and a delayed reading to cut background.
Another assay has as its target FGFR4 (Homo sapiens (Human), UniProt P22455). Put plainly: FGFR biochemical assay (LanthaScreen TR-FRET kinase assay), FGFR4.
For the next assay, the target named is FGFR2 (Homo sapiens (Human), UniProt P21802). Put plainly: FGFR biochemical assay (LanthaScreen TR-FRET kinase assay), FGFR2.
The next assay concerns the target FGFR1 (Homo sapiens (Human), UniProt P11362). Put plainly: FGFR biochemical assay (LanthaScreen TR-FRET kinase assay), FGFR1.
The mark [1] stands for this setting: read-out: FGFR2 IC50, incubation with enzyme at room temperature for 10 minutes before substrate, ATP 22 μM, FGFR2 0.01 nM.
Where [2] appears, read: read-out: FGFR2 IC50, * incubation at room temperature for 60 minutes before addition of substrate solution, ATP 22 μM, FGFR2 0.01 nM.
Setting [3] is: read-out: FGFR1 IC50, * incubation at room temperature for 60 minutes before addition of substrate solution, ATP 28 μM, FGFR1 0.01 nM.
Setting [4] is: read-out: FGFR3 IC50, * incubation at room temperature for 60 minutes before addition of substrate solution, ATP 35 μM, FGFR3 0.1 nM.

Where two headings read alike, the source gives them in different places. Where only a bound is given, the exact number is not on record here.

FGFR4, sequence (P22455 22-802): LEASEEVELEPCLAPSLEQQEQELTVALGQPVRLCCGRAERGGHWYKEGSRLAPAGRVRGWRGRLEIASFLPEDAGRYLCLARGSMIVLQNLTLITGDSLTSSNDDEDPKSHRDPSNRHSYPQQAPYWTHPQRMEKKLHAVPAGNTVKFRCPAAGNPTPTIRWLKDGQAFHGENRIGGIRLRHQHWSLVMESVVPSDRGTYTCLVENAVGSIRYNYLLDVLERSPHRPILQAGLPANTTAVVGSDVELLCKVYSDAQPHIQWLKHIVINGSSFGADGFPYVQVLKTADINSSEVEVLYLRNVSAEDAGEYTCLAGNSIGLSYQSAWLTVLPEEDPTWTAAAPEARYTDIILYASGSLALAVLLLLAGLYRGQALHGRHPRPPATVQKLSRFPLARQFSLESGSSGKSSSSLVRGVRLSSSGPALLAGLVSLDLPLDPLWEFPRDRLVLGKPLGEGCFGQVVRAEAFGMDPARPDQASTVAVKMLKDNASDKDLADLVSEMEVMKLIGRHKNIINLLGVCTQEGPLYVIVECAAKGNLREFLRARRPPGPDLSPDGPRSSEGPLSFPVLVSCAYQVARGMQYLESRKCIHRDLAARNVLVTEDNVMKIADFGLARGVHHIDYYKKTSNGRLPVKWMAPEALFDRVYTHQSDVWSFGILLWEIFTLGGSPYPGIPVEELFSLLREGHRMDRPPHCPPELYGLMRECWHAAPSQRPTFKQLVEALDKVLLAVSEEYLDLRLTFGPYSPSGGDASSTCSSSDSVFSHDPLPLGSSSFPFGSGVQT
FGFR3, sequence (P22607 23-806): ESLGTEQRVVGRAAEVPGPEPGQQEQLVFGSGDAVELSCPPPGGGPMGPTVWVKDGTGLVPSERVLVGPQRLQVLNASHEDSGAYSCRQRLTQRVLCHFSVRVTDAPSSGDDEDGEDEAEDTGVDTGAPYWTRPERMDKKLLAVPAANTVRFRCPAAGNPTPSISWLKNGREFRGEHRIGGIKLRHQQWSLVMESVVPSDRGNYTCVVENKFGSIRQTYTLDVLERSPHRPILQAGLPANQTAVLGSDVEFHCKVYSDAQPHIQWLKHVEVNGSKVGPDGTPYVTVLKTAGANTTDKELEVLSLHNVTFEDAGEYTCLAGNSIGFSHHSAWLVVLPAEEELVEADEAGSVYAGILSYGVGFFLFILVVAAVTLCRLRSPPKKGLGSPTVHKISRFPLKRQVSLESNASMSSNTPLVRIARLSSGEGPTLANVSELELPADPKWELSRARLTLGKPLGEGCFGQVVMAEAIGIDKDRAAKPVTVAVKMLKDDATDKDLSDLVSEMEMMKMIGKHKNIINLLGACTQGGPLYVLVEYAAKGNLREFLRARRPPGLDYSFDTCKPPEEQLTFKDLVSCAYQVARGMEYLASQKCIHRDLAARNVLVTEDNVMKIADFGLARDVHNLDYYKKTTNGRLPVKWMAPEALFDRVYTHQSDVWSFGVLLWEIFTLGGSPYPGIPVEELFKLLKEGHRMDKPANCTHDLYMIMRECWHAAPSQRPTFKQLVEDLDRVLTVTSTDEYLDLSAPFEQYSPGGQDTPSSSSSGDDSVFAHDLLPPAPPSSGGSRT
FGFR1, sequence (P11362 22-822): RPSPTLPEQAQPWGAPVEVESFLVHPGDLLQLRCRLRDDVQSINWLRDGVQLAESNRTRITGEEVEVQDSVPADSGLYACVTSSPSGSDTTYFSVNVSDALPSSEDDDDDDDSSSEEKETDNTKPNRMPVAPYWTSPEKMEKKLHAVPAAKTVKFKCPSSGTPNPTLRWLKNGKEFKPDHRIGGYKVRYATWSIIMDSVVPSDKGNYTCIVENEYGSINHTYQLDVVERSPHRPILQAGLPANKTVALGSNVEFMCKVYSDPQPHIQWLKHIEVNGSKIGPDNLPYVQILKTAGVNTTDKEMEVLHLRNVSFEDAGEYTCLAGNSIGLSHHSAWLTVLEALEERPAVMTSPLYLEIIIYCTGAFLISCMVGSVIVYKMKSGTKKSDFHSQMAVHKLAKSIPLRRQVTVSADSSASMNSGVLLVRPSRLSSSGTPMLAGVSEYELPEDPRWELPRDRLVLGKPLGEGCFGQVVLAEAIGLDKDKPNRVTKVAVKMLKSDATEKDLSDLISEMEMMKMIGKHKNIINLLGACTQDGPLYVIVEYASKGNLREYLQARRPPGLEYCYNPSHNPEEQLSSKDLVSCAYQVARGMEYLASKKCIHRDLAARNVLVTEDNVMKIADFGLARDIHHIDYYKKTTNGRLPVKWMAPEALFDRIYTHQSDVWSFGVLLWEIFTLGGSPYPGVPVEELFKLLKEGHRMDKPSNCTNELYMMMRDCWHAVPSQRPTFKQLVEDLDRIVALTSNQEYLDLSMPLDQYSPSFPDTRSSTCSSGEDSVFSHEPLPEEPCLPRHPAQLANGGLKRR
FGFR2, sequence (P21802 22-821): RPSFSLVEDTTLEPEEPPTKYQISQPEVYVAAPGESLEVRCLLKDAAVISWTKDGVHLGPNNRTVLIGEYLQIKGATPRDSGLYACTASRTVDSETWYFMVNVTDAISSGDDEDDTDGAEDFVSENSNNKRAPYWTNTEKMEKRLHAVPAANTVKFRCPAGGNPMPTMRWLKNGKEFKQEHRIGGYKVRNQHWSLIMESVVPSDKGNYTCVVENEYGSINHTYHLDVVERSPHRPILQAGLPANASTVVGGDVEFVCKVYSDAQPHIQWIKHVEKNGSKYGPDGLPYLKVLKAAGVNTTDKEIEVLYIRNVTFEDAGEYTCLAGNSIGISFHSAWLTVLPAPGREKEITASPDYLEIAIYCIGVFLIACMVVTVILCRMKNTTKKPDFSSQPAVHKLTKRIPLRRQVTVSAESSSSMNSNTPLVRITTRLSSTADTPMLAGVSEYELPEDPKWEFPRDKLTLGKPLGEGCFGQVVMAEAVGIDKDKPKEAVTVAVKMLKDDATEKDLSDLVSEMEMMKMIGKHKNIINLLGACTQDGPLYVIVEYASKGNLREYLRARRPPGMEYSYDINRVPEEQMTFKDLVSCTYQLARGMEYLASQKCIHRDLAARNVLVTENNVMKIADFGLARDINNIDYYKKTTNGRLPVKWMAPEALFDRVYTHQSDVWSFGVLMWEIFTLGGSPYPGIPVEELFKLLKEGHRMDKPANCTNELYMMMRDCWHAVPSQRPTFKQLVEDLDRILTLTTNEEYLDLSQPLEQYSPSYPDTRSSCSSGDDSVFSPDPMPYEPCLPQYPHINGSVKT
Protocol for FGFR1: (§1) Convert Ratio values to percent inhibition values (Percent inhibition=(max−sample Ratio)/(max−min)*100) where “min” means the Ratio of no enzyme control and “max” means the Ratio of DMSO control. • Data are analyzed and curve fitting is performed by XLFit Excel add-in version 5.4.0.8. The IC50 calculation equation is: Y=Bottom+(Top-Bottom)/(1+ (IC50/X)^HillSlope.
Protocol for FGFR2: as §1
Protocol for FGFR3: as §1
Protocol for FGFR4: as §1

As for `C=CC(=O)Nc1ccc(-c2c(-c3ccc(Oc4cccc(C)n4)cc3)c(C(N)=O)c3cncc(C)n23)cc1` [Example 5, 6-(4-acrylamidophenyl)-4-methyl-7-(4-((6-methylpyridin-2-yl)oxy)phenyl)pyrrolo[1,2-a]pyrazine-8-carboxamide], the IC50 at FGFR3 was 0.01 to 0.1 µM; against FGFR4, 0.1 to 1 µM; at FGFR2 (setting [1]), below 0.01 µM; against FGFR1 it was 0.1 to 1 µM.

Consider `C=CC(=O)Nc1ccc(-c2c(-c3ccc(Oc4cccc(C)n4)cc3)c(C(N)=O)c3cnc(C)cn23)cc1` [Example 7, 6-(4-acrylamidophenyl)-3-methyl-7-(4-((6-methylpyridin-2-yl)oxy)phenyl)pyrrolo[1,2-a]pyrazine-8-carboxamide], for which the IC50 at FGFR3 was 0.01 to 0.1 µM; against FGFR4, 0.1 to 1 µM; at FGFR2 (setting [1]), below 0.01 µM; at FGFR1 it was 0.1 to 1 µM.

On to `C=CC(=O)Nc1ccc(-c2c(-c3ccc(Oc4cccc(C)n4)cc3)c(C(N)=O)c3cnc(CO)cn23)cc1` [Example 11, 6-(4-acrylamidophenyl)-3-(hydroxymethyl)-7-(4-((6-methylpyridin-2-yl)oxy)phenyl)pyrrolo[1,2-a]pyrazine-8-carboxamide], for which the IC50 was 0.01 to 0.1 µM at FGFR3, 0.1 to 1 µM at FGFR4, below 0.01 µM on FGFR2 (setting [1]) and 0.1 to 1 µM against FGFR1.

As for `C=CC(=O)Nc1ccc(-c2c(-c3ccc(Oc4cccc(C)n4)cc3)c(C(N)=O)c3n2CCN(C)C3)cc1` [Example 13, 6-(4-acrylamidophenyl)-2-methyl-7-(4-((6-methylpyridin-2-yl)oxy)phenyl)-1,2,3,4-tetrahydropyrrolo[1,2-a]pyrazine-8-carboxamide], the IC50 was 0.1 to 1 µM at FGFR3; above 1 µM on FGFR4 (read-out: FGFR4 IC50, incubation with enzyme at room temperature for 10 minutes before substrate, ATP 238 μM, FGFR4 1 nM); 0.01 to 0.1 µM on FGFR2; 0.1 to 1 µM on FGFR1.

On to `C=C(F)C(=O)Nc1ccc(-c2c(-c3ccc(Oc4nccc(C)n4)c(F)c3)c(C(N)=O)c3ccc(C)nn23)cc1` [Example 93, 6-(3-fluoro-4-((4-methylpyrimidin-2-yl)oxy)phenyl)-7-(4-(2-fluoroacrylamido)phenyl)-2-methylpyrrolo[1,2-b]pyridazine-5-carboxamide], for which the IC50 against FGFR3 fell in the range of 0.01 to 0.1 µM; at FGFR2 it was 0.01 to 0.1 µM; against FGFR1 it was 0.1 to 1 µM.

With `C=C(F)C(=O)Nc1ccc(-c2c(-c3ccc(Oc4nccc(C)n4)c(F)c3)c(C(N)=O)c3ccc(C)nn23)c(C)c1` [Example 94, 6-(3-fluoro-4-((4-methylpyrimidin-2-yl)oxy)phenyl)-7-(4-(2-fluoroacrylamido)-2-methylphenyl)-2-methylpyrrolo[1,2-b]pyridazine-5-carboxamide], the IC50 was 0.01 to 0.1 µM at FGFR3, below 0.01 µM on FGFR2 (setting [2]) and 0.01 to 0.1 µM at FGFR1.

Regarding `C=C(F)C(=O)N1CCc2cc(-c3c(-c4ccc(Oc5nccc(C)n5)c(F)c4)c(C(N)=O)c4ccc(C)nn34)ccc21` [Example 95, 6-(3-fluoro-4-((4-methylpyrimidin-2-yl)oxy)phenyl)-7-(1-(2-fluoroacryloyl)indolin-5-yl)-2-methylpyrrolo[1,2-b]pyridazine-5-carboxamide], the IC50 was 0.1 to 1 µM at FGFR3, 0.01 to 0.1 µM against FGFR2 and above 1 µM on FGFR1 (setting [3]).

In the case of `C=C(F)C(=O)N1CCc2cc(-c3c(-c4ccc(Oc5nccc(C)n5)c(F)c4)c(C(N)=O)c4ccc(C)nn34)c(C)cc21` [Example 96, 6-(3-fluoro-4-((4-methylpyrimidin-2-yl)oxy)phenyl)-7-(1-(2-fluoroacryloyl)-6-methylindolin-5-yl)-2-methylpyrrolo[1,2-b]pyridazine-5-carboxamide], the figures for the IC50 on FGFR3 (setting [4]), on FGFR2 (setting [2]) and at FGFR1 were below 0.01 µM, below 0.01 µM and 0.01 to 0.1 µM, respectively.

For the molecule `C=C(F)C(=O)N1CCc2cc(-c3c(-c4ccc(Oc5nccc(C)n5)c(F)c4)c(C(N)=O)c4cnc(C)cn34)c(C)cc21` [Example 97, 7-(3-fluoro-4-((4-methylpyrimidin-2-yl)oxy)phenyl)-6-(1-(2-fluoroacryloyl)-6-methylindolin-5-yl)-3-methylpyrrolo[1,2-a]pyrazine-8-carboxamide], the IC50 at FGFR3 (setting [4]) was below 0.01 µM; at FGFR2 (setting [2]), below 0.01 µM; at FGFR1, 0.01 to 0.1 µM.

With `C=C(F)C(=O)N1CCCc2cc(-c3c(-c4ccc(Oc5nccc(C)n5)c(F)c4)c(C(N)=O)c4cnc(C)cn34)c(F)cc21` [Example 98, 6-(7-fluoro-1-(2-fluoroacryloyl)-1,2,3,4-tetrahydroquinolin-6-yl)-7-(3-fluoro-4-((4-methylpyrimidin-2-yl)oxy)phenyl)-3-methylpyrrolo[1,2-a]pyrazine-8-carboxamide], the results for the IC50 on FGFR3, at FGFR2 and on FGFR1 (setting [3]) were 0.1 to 1 µM, 0.1 to 1 µM and above 1 µM, respectively.

In the case of `C=C(F)C(=O)N1CCc2c1ccc(-c1c(-c3ccc(Oc4nccc(C)n4)c(F)c3)c(C(N)=O)c3cnc(C)cn13)c2F` [Example 99, 6-(4-fluoro-1-(2-fluoroacryloyl)indolin-5-yl)-7-(3-fluoro-4-((4-methylpyrimidin-2-yl)oxy)phenyl)-3-methylpyrrolo[1,2-a]pyrazine-8-carboxamide], the results for the IC50 on FGFR3 (setting [4]), at FGFR2 (setting [2]) and against FGFR1 were below 0.01 µM, below 0.01 µM and 0.01 to 0.1 µM, respectively.

Turning to `C=CC(=O)N1CC=C(c2c(-c3ccc(Oc4nccc(C)n4)c(F)c3)c(C(N)=O)c3cnc(C)cn23)CC1` [Example 101, 6-(1-acryloyl-1,2,3,6-tetrahydropyridin-4-yl)-7-(3-fluoro-4-((4-methylpyrimidin-2-yl)oxy)phenyl)-3-methylpyrrolo[1,2-a]pyrazine-8-carboxamide], the IC50 against FGFR3, against FGFR2 and at FGFR1 was 0.01 to 0.1 µM each time.

Regarding `C=C(F)C(=O)N1CC2(CC2)c2cc(-c3c(-c4ccc(Oc5nccc(C)n5)c(F)c4)c(C(N)=O)c4cnc(C)cn34)c(F)cc21` [Example 102, 6-(6′-fluoro-1′-(2-fluoroacryloyl)spiro[cyclopropane-1,3′-indolin]-5′-yl)-7-(3-fluoro-4-((4-methylpyrimidin-2-yl)oxy)phenyl)-3-methylpyrrolo[1,2-a]pyrazine-8-carboxamide], the IC50 is 0.01 to 0.1 µM at FGFR3, 0.01 to 0.1 µM at FGFR2 and below 0.01 µM on FGFR1 (setting [3]).

With `C=C(F)C(=O)Nc1ccc(-c2c(-c3ccc(Oc4nccc(C)n4)c(F)c3)c(C(N)=O)c3cc(C4CC4)ncn23)cc1` [Example 105, 3-cyclopropyl-6-(3-fluoro-4-((4-methylpyrimidin-2-yl)oxy)phenyl)-7-(4-(2-fluoroacrylamido)phenyl)pyrrolo[1,2-c]pyrimidine-5-carboxamide], the IC50 was 0.01 to 0.1 µM against FGFR3, below 0.01 µM on FGFR2 (setting [2]) and 0.01 to 0.1 µM on FGFR1.

As to `C=C(F)C(=O)Nc1ccc(-c2c(-c3ccc(Oc4nccc(C)n4)c(F)c3)c(C(N)=O)c3cncnn23)cc1` [Example 108, 6-(3-fluoro-4-((4-methylpyrimidin-2-yl)oxy)phenyl)-7-(4-(2-fluoroacrylamido)phenyl)pyrrolo[2,1-f][1,2,4]triazine-5-carboxamide], the results for the 50% inhibitory concentration (IC50) against FGFR3, on FGFR2 and on FGFR1 (setting [3]) were 0.1 to 1 µM, 0.01 to 0.1 µM and above 1 µM, respectively.

As usually defined, the IC50 is the point on the concentration scale where inhibition reaches its midpoint.

These data come from patent US20250382297A1, “INHIBITORS OF FGFR2 AND FGFR3 AND USES THEREOF” (Insilico Medicine IP Limited, priority 2022, published 2025).
